Experimental data reported in BindingDB's records for doi:10.1021/jm00015a003 (Warner-Lambert, 1995).
Counter-ions that a name gives are not always drawn. Numbered stars: 1 amine (or outer) side, 2 acyl side, 3 side chain; on linkers, the order of the positions; unused ones are H or OH. Square brackets hold non-standard residues; d marks the D form. Peptide text beside a SMILES is read from it. * marks the point of attachment. dDip = N[C@@H](C(=O)O)C(c1ccccc1)c1ccccc1; Dip = N[C@H](C(=O)O)C(c1ccccc1)c1ccccc1; CO = O=C([*:1])[*:2]; Tfa = O=C(C(F)(F)F)*; Ms = CS(=O)(=O)*

Assay: Inhibition of ET-1 stimulated arachidonic acid release in rabbit renal vascular smooth muscle cells

IC50 [nM]	Structure (SMILES)
14	CC[C@H](C)[C@H](NC(=O)[C@H](CC(=O)O)NC(=O)[C@H](CCCNC(=N)N)NC(=O)[C@H](NC(C)=O)C(c1ccccc1)c1ccccc1)C(=O)N[C@H](C(=O)N[C@@H](Cc1c[nH]c2ccccc12)C(=O)O)[C@@H](C)CC [(S)-3-[(S)-2-((S)-2-Acetylamino-3,3-diphenyl-propionylamino)-5-guanidino-pentanoylamino]-N-((1S,2S)-1-{(1S,2S)-1-[(S)-1-carboxy-2-(1H-indol-3-yl)-ethylcarbamoyl]-2-methyl-butylcarbamoyl}-2-methyl-butyl)-succinamic acid]
130	CC[C@H](C)[C@H](NC(=O)[C@H](CC(=O)O)NC(=O)[C@H](CCC(=O)O)NC(=O)[C@H](NC(C)=O)C(c1ccccc1)c1ccccc1)C(=O)N[C@H](C(=O)N[C@@H](Cc1c[nH]c2ccccc12)C(=O)O)[C@@H](C)CC [(S)-4-((S)-2-Acetylamino-3,3-diphenyl-propionylamino)-4-[(S)-2-carboxy-1-((1S,2S)-1-{(1S,2S)-1-[(S)-1-carboxy-2-(1H-indol-3-yl)-ethylcarbamoyl]-2-methyl-butylcarbamoyl}-2-methyl-butylcarbamoyl)-ethylcarbamoyl]-butyric acid] (Ac-[dDip]EDIIW-OH)
430	CC[C@H](C)[C@H](NC(=O)[C@H](CCC(=O)O)NC(=O)[C@H](CC(C)C)NC(=O)[C@@H](NC(C)=O)C(c1ccccc1)c1ccccc1)C(=O)N[C@H](C(=O)N[C@@H](Cc1c[nH]c2ccccc12)C(=O)O)[C@@H](C)CC [(S)-4-[(S)-2-((S)-2-Acetylamino-3,3-diphenyl-propionylamino)-4-methyl-pentanoylamino]-4-((1S,2S)-1-{(1S,2S)-1-[(S)-1-carboxy-2-(1H-indol-3-yl)-ethylcarbamoyl]-2-methyl-butylcarbamoyl}-2-methyl-butylcarbamoyl)-butyric acid] (Ac-[Dip]LEIIW-OH)
450	CC[C@H](C)[C@H](NC(=O)[C@H](CCC(=O)O)NC(=O)[C@H](CC(=O)O)NC(=O)[C@H](CC(C)C)NC(=O)[C@H](NC(C)=O)C(c1ccccc1)c1ccccc1)C(=O)N[C@@H](Cc1c[nH]c2ccccc12)C(=O)O [(S)-4-{(S)-2-[(S)-2-((S)-2-Acetylamino-3,3-diphenyl-propionylamino)-4-methyl-pentanoylamino]-3-carboxy-propionylamino}-4-{(1S,2S)-1-[(S)-1-carboxy-2-(1H-indol-3-yl)-ethylcarbamoyl]-2-methyl-butylcarbamoyl}-butyric acid] (Ac-[dDip]LDEIW-OH)
2100	CC[C@H](C)[C@H](NC(=O)[C@H](CC(=O)O)NC(=O)[C@H](CC(C)C)NC(=O)[C@@H](NS(C)(=O)=O)C(c1ccccc1)c1ccccc1)C(=O)N[C@H](C(=O)N[C@@H](Cc1c[nH]c2ccccc12)C(=O)O)[C@@H](C)CC [(S)-N-((1S,2S)-1-{(1S,2S)-1-[(S)-1-Carboxy-2-(1H-indol-3-yl)-ethylcarbamoyl]-2-methyl-butylcarbamoyl}-2-methyl-butyl)-3-[(S)-2-((S)-2-methanesulfonylamino-3,3-diphenyl-propionylamino)-4-methyl-pentanoylamino]-succinamic acid] (Ms-[Dip]LDIIW-OH)
1700	CC[C@H](C)[C@H](NC(=O)[C@H](CC(=O)O)NC(=O)[C@H](CC(C)C)NC(=O)[C@@H](NC(=O)C(F)(F)F)C(c1ccccc1)c1ccccc1)C(=O)N[C@H](C(=O)N[C@@H](Cc1c[nH]c2ccccc12)C(=O)O)[C@@H](C)CC [(S)-N-((1S,2S)-1-{(1S,2S)-1-[(S)-1-Carboxy-2-(1H-indol-3-yl)-ethylcarbamoyl]-2-methyl-butylcarbamoyl}-2-methyl-butyl)-3-{(S)-2-[(S)-3,3-diphenyl-2-(2,2,2-trifluoro-acetylamino)-propionylamino]-4-methyl-pentanoylamino}-succinamic acid] (Tfa-[Dip]LDIIW-OH)
280	CC[C@H](C)[C@H](NC(=O)[C@H](CC(=O)O)NC(=O)[C@H](CC(C)C)NC(=O)[C@@H](NC(=O)NC)C(c1ccccc1)c1ccccc1)C(=O)N[C@H](C(=O)N[C@@H](Cc1c[nH]c2ccccc12)C(=O)O)[C@@H](C)CC [(S)-N-((1S,2S)-1-{(1S,2S)-1-[(S)-1-Carboxy-2-(1H-indol-3-yl)-ethylcarbamoyl]-2-methyl-butylcarbamoyl}-2-methyl-butyl)-3-{(S)-4-methyl-2-[(S)-2-(3-methyl-ureido)-3,3-diphenyl-propionylamino]-pentanoylamino}-succinamic acid] ({NHMe-CO}-[Dip]LDIIW-OH)
